Experimental data taken from ChEMBL document CHEMBL5291721, “A preclinical secondary pharmacology resource illuminates target-adverse drug reaction associations of marketed drugs” (Nat Commun, 2023).
Each block holds one compound with its values, some of them ahead of it.

How the values were obtained:
Acetylcholinesterase = Acetylcholinesterase (Homo sapiens, UniProt P22303); assay type: functional
[1] = molecular target: Beta-2 adrenergic receptor (Homo sapiens, UniProt P07550)
[2] = molecular target: Beta-1 adrenergic receptor (Homo sapiens, UniProt P08588); assay type: functional
[3] = molecular target: T1, Alpha-1A adrenergic receptor (Homo sapiens, UniProt P35348)
T1 sequence (P35348 whole entry): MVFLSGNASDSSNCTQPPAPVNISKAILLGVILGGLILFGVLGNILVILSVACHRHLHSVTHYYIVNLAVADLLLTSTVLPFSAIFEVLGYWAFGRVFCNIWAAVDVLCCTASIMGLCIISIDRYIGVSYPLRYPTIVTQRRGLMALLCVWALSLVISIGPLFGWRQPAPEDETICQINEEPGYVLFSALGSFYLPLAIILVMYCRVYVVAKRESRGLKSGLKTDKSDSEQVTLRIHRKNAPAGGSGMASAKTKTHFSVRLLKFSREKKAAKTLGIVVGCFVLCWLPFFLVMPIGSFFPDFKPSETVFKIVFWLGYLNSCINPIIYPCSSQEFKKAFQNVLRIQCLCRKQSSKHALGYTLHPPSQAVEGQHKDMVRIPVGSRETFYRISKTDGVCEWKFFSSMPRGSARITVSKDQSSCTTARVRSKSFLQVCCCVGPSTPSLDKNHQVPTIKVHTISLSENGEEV

[4] = molecular target: Glutamate receptor ionotropic, NMDA 1 (Rattus norvegicus, UniProt P35439)
[5] = molecular target: Voltage-dependent L-type calcium channel subunit alpha-1C (Rattus norvegicus, UniProt P22002); assay type: functional
[6] = molecular target: Delta-type opioid receptor (Homo sapiens, UniProt P41143)
[7] = molecular target: Voltage-gated inwardly rectifying potassium channel KCNH2 (Homo sapiens, UniProt Q12809); assay type: functional
[8] = molecular target: Kappa-type opioid receptor (Homo sapiens, UniProt P41145)
Mu-type opioid receptor [9] = molecular target: T2, Mu-type opioid receptor (Homo sapiens, UniProt P35372)
[10] = molecular target: T3, Gamma-aminobutyric acid receptor subunit alpha-1 (Rattus norvegicus, UniProt P62813)
[11] = molecular target: Sodium-dependent noradrenaline transporter (Homo sapiens, UniProt P23975)
[12] = molecular target: T3, Gamma-aminobutyric acid receptor subunit alpha-1; assay type: functional
Mu-type opioid receptor [13] = molecular target: T2, Mu-type opioid receptor; assay: biochemical; assay type: functional
[14] = molecular target: Neuronal acetylcholine receptor subunit alpha-4 (Homo sapiens, UniProt P43681)
Androgen receptor = molecular target: T4, Androgen receptor (Homo sapiens, UniProt P10275)
T4 sequence (P10275 whole entry): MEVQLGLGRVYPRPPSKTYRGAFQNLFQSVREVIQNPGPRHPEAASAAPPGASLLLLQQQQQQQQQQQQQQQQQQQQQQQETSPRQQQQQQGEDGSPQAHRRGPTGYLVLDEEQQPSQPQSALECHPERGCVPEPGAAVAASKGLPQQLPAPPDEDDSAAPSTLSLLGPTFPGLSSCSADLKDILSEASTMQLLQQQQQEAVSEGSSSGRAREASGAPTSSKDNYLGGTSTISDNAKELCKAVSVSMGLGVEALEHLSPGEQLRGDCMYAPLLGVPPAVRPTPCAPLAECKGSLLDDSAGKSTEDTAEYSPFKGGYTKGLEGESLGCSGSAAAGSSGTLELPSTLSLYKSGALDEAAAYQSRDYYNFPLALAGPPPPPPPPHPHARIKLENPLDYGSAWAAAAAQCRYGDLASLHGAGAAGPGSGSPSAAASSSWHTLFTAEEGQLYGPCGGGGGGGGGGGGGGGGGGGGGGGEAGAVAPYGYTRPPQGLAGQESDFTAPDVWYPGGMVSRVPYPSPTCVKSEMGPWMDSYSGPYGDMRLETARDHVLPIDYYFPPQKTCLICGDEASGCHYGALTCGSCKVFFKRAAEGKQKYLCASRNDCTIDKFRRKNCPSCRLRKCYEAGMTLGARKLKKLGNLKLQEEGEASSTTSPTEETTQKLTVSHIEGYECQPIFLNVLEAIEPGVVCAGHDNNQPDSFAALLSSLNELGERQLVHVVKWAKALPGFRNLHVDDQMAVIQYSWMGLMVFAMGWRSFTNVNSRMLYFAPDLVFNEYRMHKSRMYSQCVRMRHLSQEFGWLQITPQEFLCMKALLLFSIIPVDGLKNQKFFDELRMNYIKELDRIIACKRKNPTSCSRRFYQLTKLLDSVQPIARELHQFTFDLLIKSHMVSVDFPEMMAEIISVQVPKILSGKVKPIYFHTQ

[15] = molecular target: T1, Alpha-1A adrenergic receptor; assay type: functional, cell-based
[16] = molecular target: T1, Alpha-1A adrenergic receptor; assay type: functional, cell-based; remark: listed apart in the source
[17] = molecular target: Voltage-dependent L-type calcium channel subunit alpha-1C (Homo sapiens, UniProt Q13936); assay type: functional, cell-based
Histamine H3 receptor = Histamine H3 receptor (Homo sapiens, UniProt Q9Y5N1)
[18] = molecular target: T5, Alpha-2A adrenergic receptor (Homo sapiens, UniProt P08913)
T5 sequence (P08913 whole entry): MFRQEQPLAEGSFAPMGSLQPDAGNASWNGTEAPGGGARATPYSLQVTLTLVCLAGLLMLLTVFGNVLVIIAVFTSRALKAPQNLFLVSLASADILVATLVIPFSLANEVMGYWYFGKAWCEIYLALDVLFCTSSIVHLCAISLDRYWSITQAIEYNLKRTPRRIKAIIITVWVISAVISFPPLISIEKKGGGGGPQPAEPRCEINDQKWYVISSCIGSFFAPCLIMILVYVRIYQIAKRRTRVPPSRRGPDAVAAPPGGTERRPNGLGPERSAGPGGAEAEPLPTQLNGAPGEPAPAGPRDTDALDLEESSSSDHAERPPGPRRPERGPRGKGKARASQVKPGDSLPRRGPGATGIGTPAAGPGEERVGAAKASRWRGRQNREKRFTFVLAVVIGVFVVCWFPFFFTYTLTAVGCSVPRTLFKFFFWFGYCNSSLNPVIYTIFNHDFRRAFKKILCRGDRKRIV

[19] = molecular target: T6, Amine oxidase [flavin-containing] A (Homo sapiens, UniProt P21397); assay type: functional
T6 sequence (P21397 whole entry): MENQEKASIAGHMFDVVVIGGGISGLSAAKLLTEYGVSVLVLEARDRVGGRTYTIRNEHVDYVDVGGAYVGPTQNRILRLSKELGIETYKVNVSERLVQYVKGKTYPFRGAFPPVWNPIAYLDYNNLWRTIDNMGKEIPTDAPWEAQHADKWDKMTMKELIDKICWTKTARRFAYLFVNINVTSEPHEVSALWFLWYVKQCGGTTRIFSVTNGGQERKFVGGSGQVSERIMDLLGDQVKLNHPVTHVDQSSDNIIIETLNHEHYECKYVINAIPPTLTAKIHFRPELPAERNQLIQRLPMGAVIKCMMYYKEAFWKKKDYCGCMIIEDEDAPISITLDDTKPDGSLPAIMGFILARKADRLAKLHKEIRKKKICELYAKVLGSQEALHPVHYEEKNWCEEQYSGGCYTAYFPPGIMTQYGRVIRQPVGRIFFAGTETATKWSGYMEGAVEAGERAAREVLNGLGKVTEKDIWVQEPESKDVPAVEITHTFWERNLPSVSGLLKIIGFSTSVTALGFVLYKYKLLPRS

Thromboxane A2 receptor = molecular target: T7, Thromboxane A2 receptor (Homo sapiens, UniProt P21731); assay type: functional, cell-based
T7 sequence (P21731 whole entry): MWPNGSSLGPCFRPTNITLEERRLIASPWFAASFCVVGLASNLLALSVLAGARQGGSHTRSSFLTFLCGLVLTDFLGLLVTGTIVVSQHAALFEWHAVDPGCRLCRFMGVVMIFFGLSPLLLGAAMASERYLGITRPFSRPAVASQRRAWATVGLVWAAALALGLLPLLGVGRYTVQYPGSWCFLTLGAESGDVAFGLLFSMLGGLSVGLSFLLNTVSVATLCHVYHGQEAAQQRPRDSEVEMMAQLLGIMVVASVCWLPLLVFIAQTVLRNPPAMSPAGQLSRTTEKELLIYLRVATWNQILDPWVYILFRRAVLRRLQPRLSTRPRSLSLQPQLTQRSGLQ

[20] = molecular target: Growth hormone secretagogue receptor type 1 (Homo sapiens, UniProt Q92847)
[21] = molecular target: Epidermal growth factor receptor (Homo sapiens, UniProt P00533); assay type: functional
Further: assay procedure not described here.

Acetylcholinesterase, sequence (P22303 whole entry): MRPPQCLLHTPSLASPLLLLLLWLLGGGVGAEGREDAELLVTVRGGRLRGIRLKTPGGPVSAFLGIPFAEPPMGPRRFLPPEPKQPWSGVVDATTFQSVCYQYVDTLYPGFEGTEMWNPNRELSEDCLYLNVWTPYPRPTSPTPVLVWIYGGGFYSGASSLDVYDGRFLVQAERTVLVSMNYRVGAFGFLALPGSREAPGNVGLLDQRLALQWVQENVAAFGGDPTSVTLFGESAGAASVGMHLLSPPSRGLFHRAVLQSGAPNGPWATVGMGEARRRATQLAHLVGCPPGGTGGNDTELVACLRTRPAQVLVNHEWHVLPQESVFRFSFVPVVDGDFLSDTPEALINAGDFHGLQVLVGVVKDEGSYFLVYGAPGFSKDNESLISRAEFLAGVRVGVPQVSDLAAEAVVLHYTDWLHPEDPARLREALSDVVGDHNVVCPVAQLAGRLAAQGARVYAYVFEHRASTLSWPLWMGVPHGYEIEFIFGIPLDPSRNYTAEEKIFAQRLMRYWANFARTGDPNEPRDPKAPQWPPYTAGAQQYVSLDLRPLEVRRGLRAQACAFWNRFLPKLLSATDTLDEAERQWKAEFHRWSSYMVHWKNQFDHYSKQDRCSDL
T3 sequence (P62813 whole entry): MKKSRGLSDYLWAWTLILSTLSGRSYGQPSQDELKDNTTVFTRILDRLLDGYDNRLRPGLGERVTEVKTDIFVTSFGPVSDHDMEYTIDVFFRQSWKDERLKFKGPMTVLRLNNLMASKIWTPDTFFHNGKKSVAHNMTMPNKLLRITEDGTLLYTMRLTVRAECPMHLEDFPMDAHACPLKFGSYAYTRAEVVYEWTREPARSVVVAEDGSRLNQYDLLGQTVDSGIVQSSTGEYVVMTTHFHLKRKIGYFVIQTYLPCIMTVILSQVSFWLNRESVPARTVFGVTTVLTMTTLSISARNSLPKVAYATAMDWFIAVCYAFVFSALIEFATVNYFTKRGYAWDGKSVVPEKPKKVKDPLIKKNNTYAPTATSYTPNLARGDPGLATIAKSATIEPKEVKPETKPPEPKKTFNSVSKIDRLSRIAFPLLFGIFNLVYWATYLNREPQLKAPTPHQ
Voltage-dependent L-type calcium channel subunit alpha-1C (Rattus norvegicus, UniProt P22002), sequence (P22002 whole entry): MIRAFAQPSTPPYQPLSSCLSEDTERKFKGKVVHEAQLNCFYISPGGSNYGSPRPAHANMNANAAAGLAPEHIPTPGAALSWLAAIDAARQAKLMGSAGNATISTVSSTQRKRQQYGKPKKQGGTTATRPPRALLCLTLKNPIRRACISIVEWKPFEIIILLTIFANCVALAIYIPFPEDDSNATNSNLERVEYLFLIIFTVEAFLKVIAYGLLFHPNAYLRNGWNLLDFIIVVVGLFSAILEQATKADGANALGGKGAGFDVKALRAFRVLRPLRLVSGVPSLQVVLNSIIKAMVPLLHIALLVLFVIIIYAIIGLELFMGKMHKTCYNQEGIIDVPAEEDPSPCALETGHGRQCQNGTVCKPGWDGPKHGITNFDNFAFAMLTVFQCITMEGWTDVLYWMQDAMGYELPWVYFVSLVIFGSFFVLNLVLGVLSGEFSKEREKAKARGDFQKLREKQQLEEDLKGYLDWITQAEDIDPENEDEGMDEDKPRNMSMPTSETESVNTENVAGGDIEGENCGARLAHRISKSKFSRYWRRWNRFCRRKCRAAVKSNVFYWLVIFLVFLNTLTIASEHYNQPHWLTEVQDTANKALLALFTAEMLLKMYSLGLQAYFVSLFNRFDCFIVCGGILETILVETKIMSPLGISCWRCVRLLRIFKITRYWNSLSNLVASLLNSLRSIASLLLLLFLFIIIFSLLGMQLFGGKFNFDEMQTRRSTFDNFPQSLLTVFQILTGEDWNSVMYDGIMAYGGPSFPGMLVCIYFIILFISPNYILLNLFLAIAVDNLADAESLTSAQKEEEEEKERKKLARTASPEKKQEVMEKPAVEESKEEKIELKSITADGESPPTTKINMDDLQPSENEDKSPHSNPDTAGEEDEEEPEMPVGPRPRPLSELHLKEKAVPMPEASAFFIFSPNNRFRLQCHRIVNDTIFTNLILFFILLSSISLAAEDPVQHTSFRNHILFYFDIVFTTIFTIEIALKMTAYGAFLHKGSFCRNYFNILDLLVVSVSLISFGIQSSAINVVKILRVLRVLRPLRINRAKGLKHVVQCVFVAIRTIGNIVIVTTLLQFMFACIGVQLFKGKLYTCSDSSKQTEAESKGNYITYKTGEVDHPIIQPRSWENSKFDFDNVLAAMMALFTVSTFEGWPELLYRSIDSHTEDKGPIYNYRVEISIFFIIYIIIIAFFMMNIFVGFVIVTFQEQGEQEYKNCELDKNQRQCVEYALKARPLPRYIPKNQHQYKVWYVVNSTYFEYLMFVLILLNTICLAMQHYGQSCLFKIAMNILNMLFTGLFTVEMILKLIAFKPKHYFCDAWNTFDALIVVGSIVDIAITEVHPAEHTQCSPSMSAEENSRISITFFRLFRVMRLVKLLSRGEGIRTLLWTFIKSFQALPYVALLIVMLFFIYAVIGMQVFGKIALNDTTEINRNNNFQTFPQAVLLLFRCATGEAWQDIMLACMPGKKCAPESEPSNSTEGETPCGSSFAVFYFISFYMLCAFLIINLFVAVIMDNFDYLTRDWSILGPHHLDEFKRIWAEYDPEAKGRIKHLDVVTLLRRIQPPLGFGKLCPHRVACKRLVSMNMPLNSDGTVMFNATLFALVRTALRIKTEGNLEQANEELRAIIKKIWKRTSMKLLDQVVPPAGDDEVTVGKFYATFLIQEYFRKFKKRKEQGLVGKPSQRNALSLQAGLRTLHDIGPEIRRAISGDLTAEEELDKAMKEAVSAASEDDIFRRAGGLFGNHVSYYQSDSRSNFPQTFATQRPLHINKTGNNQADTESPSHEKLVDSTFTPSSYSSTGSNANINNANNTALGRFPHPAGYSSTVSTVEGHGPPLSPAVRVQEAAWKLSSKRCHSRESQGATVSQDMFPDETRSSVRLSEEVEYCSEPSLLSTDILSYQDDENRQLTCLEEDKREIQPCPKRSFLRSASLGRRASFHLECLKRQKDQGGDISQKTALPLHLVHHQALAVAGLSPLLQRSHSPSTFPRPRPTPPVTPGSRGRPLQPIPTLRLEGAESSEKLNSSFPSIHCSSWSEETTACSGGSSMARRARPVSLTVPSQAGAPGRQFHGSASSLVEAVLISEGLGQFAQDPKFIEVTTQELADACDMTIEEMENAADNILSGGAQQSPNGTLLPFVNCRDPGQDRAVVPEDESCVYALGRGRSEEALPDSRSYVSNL
T2 sequence (P35372 whole entry): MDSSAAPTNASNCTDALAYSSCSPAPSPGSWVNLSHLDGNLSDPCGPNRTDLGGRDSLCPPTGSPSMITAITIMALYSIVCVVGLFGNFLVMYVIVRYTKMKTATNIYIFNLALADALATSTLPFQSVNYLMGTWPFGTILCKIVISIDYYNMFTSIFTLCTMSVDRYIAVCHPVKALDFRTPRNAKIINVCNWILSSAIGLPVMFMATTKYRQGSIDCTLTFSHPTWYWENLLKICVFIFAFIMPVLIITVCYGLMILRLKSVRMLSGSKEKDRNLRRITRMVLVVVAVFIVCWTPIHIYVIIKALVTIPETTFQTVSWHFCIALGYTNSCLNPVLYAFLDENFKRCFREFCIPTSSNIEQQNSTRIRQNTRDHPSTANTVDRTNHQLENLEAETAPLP
Beta-1 adrenergic receptor, sequence (P08588 whole entry): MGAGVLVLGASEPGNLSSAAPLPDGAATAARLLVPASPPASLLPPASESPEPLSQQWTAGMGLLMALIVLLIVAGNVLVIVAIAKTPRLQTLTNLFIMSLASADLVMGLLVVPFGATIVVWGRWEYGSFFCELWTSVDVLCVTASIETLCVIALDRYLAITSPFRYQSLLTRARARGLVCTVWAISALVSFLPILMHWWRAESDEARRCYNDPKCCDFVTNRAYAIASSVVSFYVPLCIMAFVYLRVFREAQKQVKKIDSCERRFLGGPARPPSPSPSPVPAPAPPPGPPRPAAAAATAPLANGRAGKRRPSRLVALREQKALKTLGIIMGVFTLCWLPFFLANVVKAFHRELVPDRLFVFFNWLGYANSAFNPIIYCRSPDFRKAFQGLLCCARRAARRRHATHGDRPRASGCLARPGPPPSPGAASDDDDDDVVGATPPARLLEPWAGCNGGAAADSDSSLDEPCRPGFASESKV
Growth hormone secretagogue receptor type 1, sequence (Q92847 whole entry): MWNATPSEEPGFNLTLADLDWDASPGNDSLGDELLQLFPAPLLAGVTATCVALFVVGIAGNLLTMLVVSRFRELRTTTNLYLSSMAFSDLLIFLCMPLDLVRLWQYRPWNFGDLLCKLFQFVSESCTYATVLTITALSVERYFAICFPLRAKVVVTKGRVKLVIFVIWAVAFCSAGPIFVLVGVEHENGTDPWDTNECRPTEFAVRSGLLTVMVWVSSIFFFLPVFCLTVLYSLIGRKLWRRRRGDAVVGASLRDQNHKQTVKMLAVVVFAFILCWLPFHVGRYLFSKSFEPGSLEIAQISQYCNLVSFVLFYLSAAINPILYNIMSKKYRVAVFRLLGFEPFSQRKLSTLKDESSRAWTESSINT
Histamine H3 receptor, sequence (Q9Y5N1 whole entry): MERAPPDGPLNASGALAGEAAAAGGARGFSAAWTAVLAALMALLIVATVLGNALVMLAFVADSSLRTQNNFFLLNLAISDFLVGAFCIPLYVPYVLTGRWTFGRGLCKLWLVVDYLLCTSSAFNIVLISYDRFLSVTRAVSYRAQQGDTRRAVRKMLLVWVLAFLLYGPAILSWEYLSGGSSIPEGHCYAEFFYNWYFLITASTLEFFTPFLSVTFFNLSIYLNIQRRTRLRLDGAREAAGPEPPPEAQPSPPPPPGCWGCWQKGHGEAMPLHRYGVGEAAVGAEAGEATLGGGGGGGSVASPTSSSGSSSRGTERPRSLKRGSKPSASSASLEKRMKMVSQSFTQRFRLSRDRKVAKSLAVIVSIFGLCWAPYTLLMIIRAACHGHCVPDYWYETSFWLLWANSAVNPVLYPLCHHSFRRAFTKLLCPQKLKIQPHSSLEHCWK

Compound: CC(C)Oc1ccc2c(=O)c(-c3ccccc3)coc2c1 [IPRIFLAVONE]
- AC50 (Acetylcholinesterase): > 30 µM

- AC50 [1]: > 10 µM
- AC50 [2]: > 10 µM
- AC50 [3]: > 10 µM
- AC50 [4]: > 10 µM
- AC50 [5]: > 10 µM
Compound: CCc1cc(C(N)=S)ccn1 [ETHIONAMIDE]

Compound: N=C(N)c1ccc(OCCCCCOc2ccc(C(=N)N)cc2)cc1 [PENTAMIDINE]
- AC50 (Acetylcholinesterase): 7.28 µM

Compound: CSCC[C@H](NC(=O)[C@H](Cc1c[nH]c2ccccc12)NC(=O)CCNC(=O)OC(C)(C)C)C(=O)N[C@@H](CC(=O)O)C(=O)N[C@@H](Cc1ccccc1)C(N)=O [PENTAGASTRIN]
- AC50 [6]: > 30 µM
- AC50 [7]: > 30 µM
- AC50 [8]: > 10 µM
- AC50 (Mu-type opioid receptor [9]): > 30 µM
- AC50 [10]: > 10 µM
- AC50 [11]: > 10 µM
- AC50 [12]: > 10 µM
- AC50 [4]: > 10 µM
- AC50 (Mu-type opioid receptor [13]): > 30 µM
- AC50 [14]: > 10 µM
- AC50 [5]: > 10 µM

Compound: c1ccc(C2(c3ccccc3)CC2C2=NCCN2)cc1 (centres undefined) [CIFENLINE]
- AC50 (Androgen receptor): 22.6 µM
- AC50 [15]: > 30 µM
- AC50 [16]: > 30 µM
- AC50 [17]: > 50 µM
- AC50 (Histamine H3 receptor): > 30 µM
- AC50 [18]: > 30 µM
- AC50 (Acetylcholinesterase): > 30 µM
- AC50 [19]: > 30 µM

Compound: CCCCC[C@H](O)/C=C/[C@@H]1[C@@H](C/C=C\CCCC(=O)O)[C@@H](O)C[C@H]1O [DINOPROST]
- AC50 (Thromboxane A2 receptor): 2.76 µM

- AC50 [20]: > 30 µM
- AC50 [21]: > 30 µM
Compound: O=C(O)Cc1cc(I)c(Oc2ccc(O)c(I)c2)c(I)c1 [TIRATRICOL]
